One data set concerns human subjects. The following applies: cited from earlier work.
A further data set deals with rabbit eye. The following applies: cited from earlier work.
For data set [1] the following is noted: man, dosed systemically; cited from earlier work.
For a further data set, the system named is 5HT2 receptor subtypes. Conditions: 5HT2 agonist, rank order of subtypes; cited from earlier work.
In data set [2] the test system is lasered (hypertensive) eyes of conscious cynomolgus monkeys. The experiment in a line: Acute IOP Response in Lasered (Hypertensive) Eyes of Conscious Cynomolgus Monkeys. The data set is classed as in vivo, cynomolgus monkey. The following applies: topical, one 30 μL aliquot, dose (R)-DOI 100 μg, α-methylserotonin 250 μg, 5-methoxy-α-methyltryptamine 300 μg, serotonin 250 μg. As to the method: Acute IOP Response in Lasered (Hypertensive) Eyes of Conscious Cynomolgus Monkeys
Intraocular pressure (IOP) was determined with an Alcon Pneumatonometer after light corneal anesthesia with 0.1% proparacaine. Eyes were washed with saline after each measurement. After a baseline IOP measurement, test compound was instilled in one 30 μL aliquot to the right eyes only of nine cynomolgus monkeys. Vehicle was instilled in the right eyes of six additional animals. Subsequent IOP measurements were taken at 1, 3, and 6 hours.

In a further data set the target is 5HT2 receptor (Rattus norvegicus, UniProt P14842). Kind of data set: cell-based. As to the method:
Confluent cells are exposed for 24-30 hrs to 1.5 μCi [^3H]-myo-inositol (18.3 Ci/mmol) in 0.5 ml of serum-free medium. Cells are then rinsed once with DMEM/F-12 containing 10 mM LiCl prior to incubation with the test agent (or solvent as the control) in 1.0 ml of the same medium for 1 hr at 37° C., after which the medium is aspirated and 1 ml of cold 0.1 M formic acid added to stop the reaction. […] The eluate (4 ml) is collected, mixed with 15 ml scintillation fluid, and the total [^3H]-IPs determined by scintillation counting on a beta-counter.

A further data set has as its system glaucomatous monkeys. Conditions: cited from earlier work.
[3] abbreviates: rabbit, administered intracamerally.

Like-named read-outs stand apart in the source and are kept apart here.

Chain of 5HT2 receptor (P14842 whole entry): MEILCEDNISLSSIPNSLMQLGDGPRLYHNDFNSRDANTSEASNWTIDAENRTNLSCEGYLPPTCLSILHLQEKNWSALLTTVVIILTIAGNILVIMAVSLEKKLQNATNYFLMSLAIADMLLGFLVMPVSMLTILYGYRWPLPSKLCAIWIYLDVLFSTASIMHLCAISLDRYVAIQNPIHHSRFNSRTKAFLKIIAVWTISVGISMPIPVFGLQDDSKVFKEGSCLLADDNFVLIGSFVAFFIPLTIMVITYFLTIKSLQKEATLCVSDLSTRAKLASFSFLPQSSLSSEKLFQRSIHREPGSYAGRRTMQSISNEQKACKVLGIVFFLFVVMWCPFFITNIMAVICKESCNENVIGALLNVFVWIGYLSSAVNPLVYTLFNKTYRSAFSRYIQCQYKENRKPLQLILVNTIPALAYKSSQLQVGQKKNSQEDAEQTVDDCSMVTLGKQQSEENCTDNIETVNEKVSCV

In the case of `COc1cccc(CCc2ccccc2OCC(CN(C)C)OC(=O)CCC(=O)O)c1` (stereo not shown) [Saprogrelate], the “effect on IOP” value with human subjects (man, dosed topically or orally) is listed as “lowers IOP”; with rabbit eye (rabbits, dosed topically or orally) it was “lowers IOP”.

Regarding `c1ccc2c(c1)OC[C@H](CNCCCOc1ccc3c(c1)OCO3)O2` [MKC-242], in the data set on rabbit eye (rabbits, route not stated), the “effect on IOP” value was “lower IOP”.

`CC[C@@H](CO)NC(=O)[C@@H]1C=C2c3cccc4c3c(cn4C)C[C@H]2N(C)C1` [Methysergide]: in the data set with rabbit eye (rabbits, route not stated), the “effect on IOP” value is listed as “lowered IOP”.

Regarding `COc1cc(CC(C)N)c(OC)cc1I` (stereo not shown) [DOI], the CNS side effects entry in data set [1] is on record as “cause central nervous system (CNS) side effects”.

As to `CC(N)Cc1c[nH]c2ccc(O)cc12` (stereo not drawn) [α-Methylserotonin, α-methyl-serotonin], the receptor subtype selectivity in the data set on 5HT2 receptor subtypes is given as 5HT2B>5HT2C>5HT2A. Moreover, in data set [2], the “Percent IOP Reduction ± SEM, 1 hour after dose” value was 14.2 ± 4.39%; the “Percent IOP Reduction ± SEM, 3 hours after dose” value was 25.8 ± 5.16%; the “Percent IOP Reduction ± SEM, 6 hours after dose” value turned out to be 30.8 ± 7.72%.

As to `NCCc1c[nH]c2ccc(O)cc12` [Serotonin, 5-hydroxytryptamine], in data set [2], the “Percent IOP Reduction ± SEM, 1 hour after dose” value came out at 13.3 ± 5.31%; the “Percent IOP Reduction ± SEM, 3 hours after dose” value turned out to be 18.0 ± 5.12%; the “Percent IOP Reduction ± SEM, 6 hours after dose” value is reported as 2.0 ± 7.39%. For the same compound, in the data set on rabbit eye (setting [3]), the blood-aqueous barrier entry is recorded as “caused breakdown of the blood-aqueous barrier” and the “effect on IOP” value is recorded as “increase in IOP”.

With `CNCCC(Oc1ccc(C(F)(F)F)cc1)c1ccccc1` (stereo not shown) [fluoxetine], the “effect on IOP” value with human subjects (human subjects, oral administration) is given as “raises IOP”.

The Emax is the size of the effect at its maximum, as opposed to the concentration needed. With `COc1ccc2[nH]cc(CC(C)N)c2c1` (stereo not drawn) [5-Methoxy-α-methyltryptamine, 5-methoxy-α-methyltryptamine], on 5HT2 receptor (A7R5, read-out: Efficacy (Emax, %)), the Emax was 107%. In data set [2], the “Percent IOP Reduction ± SEM, 1 hour after dose” value came out at 21.6 ± 5.05%; the “Percent IOP Reduction ± SEM, 3 hours after dose” value came out at 35.2 ± 6.12%; the “Percent IOP Reduction ± SEM, 6 hours after dose” value is listed as 33.4 ± 5.39%.

`O=C(c1ccc(F)cc1)C1CCN(CCn2c(=O)[nH]c3ccccc3c2=O)CC1` [Ketanserin]: the “effect on IOP” value is recorded as “lowers IOP” with human subjects (man, route not stated) and “lowers IOP” in the data set with rabbit eye (rabbits, route not stated).

For orientation: EC50 means the midpoint of the concentration-response curve. For the compound `COc1cc(C[C@@H](C)N)c(OC)cc1I` [(R)-DOI, (R)4-iodo-2,5 dimethoxy-α-methyl-benzeneethanamine], the EC50 on 5HT2 receptor worked out at 277 ± 35 nM. In data set [2], the “Percent IOP Reduction ± SEM, 1 hour after dose” value amounted to 11.0 ± 4.98%; the “Percent IOP Reduction ± SEM, 3 hours after dose” value came out at 25.3 ± 2.97%; the “Percent IOP Reduction ± SEM, 6 hours after dose” value is given as 34.4 ± 4.98%.

Turning to `CCCN(CCC)C1CCc2cccc(O)c2C1` (stereo not shown) [8-hydroxy DPAT], the “effect on IOP” value with rabbit eye (rabbits, route not stated) is on record as “lower IOP”.

For the compound `NCCc1c[nH]c2ccc(C(N)=O)cc12` [5-carboxamidotryptamine], the “effect on intraocular pressure (IOP)” value with rabbit eye (rabbit, topically applied) is given as “raise intraocular pressure”.

As to `COc1ccccc1N1CCN(CCCNc2c(C)c(=O)n(C)c(=O)n2C)CC1` [5-methylurapidil], in the data set with glaucomatous monkeys, the “effect on IOP” value is recorded as “lowered IOP”.

The record behind these values is patent US6664286B1, “Serotonergic 5ht2 agonists for treating glaucoma” (Alcon Manufacturing, Ltd., priority 1998, dated 2003).
